Several values for one entry are separate records, joined by “and”; a condition that tells them apart may be missing. Equal entries are not always repeated. Where two headings read alike, the source gives them in different places.
Key:
[1] = system: blood-ocular barrier; conditions: for Uptake of [14C]-sucrose, % of plasma concentration (W/W) / KIN, unidirectional transport rate of [14C]-sucrose: A-7 1 μg/kg; for KIN, unidirectional transport rate of [14C]-sucrose: 3.0 min to 4.5 min
Protocol: Adult Hartley guinea pigs of either sex (250-300 g) were used.
Animals were anaesthetized with 6 mg/kg xylazine (Rompun®, Mobay Corp., Shawnee, Kans.) and 30 mg/kg ketamine (Vetacet®, Abeco Co., Inc., Fort Dodge, Iowa) before surgically exposing the neck vessels. […] The technique is briefly summarized here. A fine polyethylene catheter connected to the extracorporeal perfusion system by silicon tubings was inserted into the right common carotid artery. Immediately after the start of the perfusion, the contralateral carotid artery was ligated and both jugular veins cut to allow free drainage of the perfusate.
All tubing was low gas permeable silicon, and all metal was medical grade stainless steel. The temperature and perfusion pressure were continuously recorded, and the acid-base status frequently monitored. Perfusion pressure was kept slightly above the animal's blood pressure to eliminate any possible ingress from the systemic circulation.
Isotopically labeled [^14 C]-sucrose was introduced into the perfusion circuit after the 5 minute infusion at a rate of 0.4 to 0.6 μCi/ml/min, over periods ranging from 1.5 min to 4.5 min. In all experiments, the perfusion was terminated by severing the right common carotid artery and decapitating the animal.
The eyes were enucleated and the lenses rapidly excised via a lateral approach 1.5 mm posteriorly to the limbus. The lenses were blotted on filter paper to remove any adhering aqueous humor and to avoid epithelial contamination by aqueous radioactivity. Corneas were dissected circumferentially about 0.5 mm anteriorly to the limbus. After removal of the anterior segment of the eye, the vitreous body was dissected from the retinal surface. Retinas were scooped from the lying epithelium. All tissues were blotted after dissection to minimize contamination by adjacent tissue layers and/or fluids. Samples of plasma, aqueous humor, lens, cornea, retina and posterior vitreous were treated with 2 ml Beckman Tissue Solubilizer (BTS)-450, and 16 ml of scintillant (Beckman Ready Organic, Fullerton, Calif.). Radioactivity was determined in a Beckman LS-7500 liquid scintillation spectrometer.
(When data are expressed as percentages the ratios were multiplied by 100.) The following equations were used to calculate ratios:
Caqueous or Cvitreous /Cplasma =(DPM/ml aqueous or vitreous)/(DPM/ml plasma)
Clens or Ccornea or Cretina /Cplasma =(DPM/g lens or cornea or retina)/(DPM/ml plasma)
Multiple-time uptake series were performed, and the unidirectional transport rate constant, KIN, and initial volume of tracer distribution, VI, were calculated using the following equations where T is the perfusion time:
KIN (plasma-aqueous or vitreous)=[Caqueous or vitreous /Cplasma ]T+VI (aqueous or vitreous/plasma)
KIN (plasma-lens, cornea or retina)=[Clens, cornea or retina /Cplasma ]T+VI (lens cornea or retina/plasma)
The respective KIN and VI values were graphically estimated by linear regression analysis as a slope and ordinate intercept of the line corresponding to the best linear fit to experimental data points for the time period when there was no significant departure from linearity in studied compartments.
Results are presented as means±SE.

[2] = Effect of A-7 on physiological functions; format: in vivo, guinea pig; conditions: for Blood Pressure / Body Weight / Heart Rate / Respirations/Minute: within first minute of infusion

Arginine-Proline-Hydroxyproline-Glycine-Thienylalanine-Serine-Proline-4-Me-Tyrosine-(CH2 NH)Arginine [A-7]
Uptake of [14C]-sucrose, % of plasma concentration (W/W) ([1]; aqueous, 4.5 min after sucrose added): 1.79 ± 0.68 % of Plasma Concentration (W/W
Uptake of [14C]-sucrose, % of plasma concentration (W/W) ([1]; cornea, 1.5 min after sucrose added): 0.48 ± 0.19 % of Plasma Concentration (W/W
Uptake of [14C]-sucrose, % of plasma concentration (W/W) ([1]; cornea, 3.0 min after sucrose added): 1.01 ± 0.23 % of Plasma Concentration (W/W
KIN, unidirectional transport rate of [14C]-sucrose ([1]; cornea): 16.20 ± 3.42 µL/min/g
Uptake of [14C]-sucrose, % of plasma concentration (W/W) ([1]; cornea, 4.5 min after sucrose added, an outlier of 0.5% not included): 3.44 ± 1.40 % of Plasma Concentration (W/W
KIN for sucrose, times higher in the presence of A-7 ([1]; lens): 6.5 times
Uptake of [14C]-sucrose, % of plasma concentration (W/W) ([1]; lens, 1.5 min after sucrose added): 0.03 ± 0.02 % of Plasma Concentration (W/W
Uptake of [14C]-sucrose, % of plasma concentration (W/W) ([1]; lens, 3.0 min after sucrose added): 0.05 ± 0.01 % of Plasma Concentration (W/W
KIN, unidirectional transport rate of [14C]-sucrose ([1]; lens): 0.130 ± 0.015 µL/min/g
Uptake of [14C]-sucrose, % of plasma concentration (W/W) ([1]; lens, 4.5 min after sucrose added): 0.07 ± 0.01 % of Plasma Concentration (W/W
KIN for sucrose, times higher in the presence of A-7 ([1]; retina): 6.7 times
Uptake of [14C]-sucrose, % of plasma concentration (W/W) ([1]; retina, 1.5 min after sucrose added, 5 min arterial infusion): 0.95 ± 0.30 % of Plasma Concentration (W/W
Uptake of [14C]-sucrose, % of plasma concentration (W/W) ([1]; retina, 3.0 min after sucrose added, 5 min arterial infusion): 1.76 ± 0.50 % of Plasma Concentration (W/W
KIN, unidirectional transport rate of [14C]-sucrose ([1]; retina): 4.27 ± 0.9 µL/min/g
Uptake of [14C]-sucrose, % of plasma concentration (W/W) ([1]; retina, 4.5 min after sucrose added, 5 min arterial infusion): 2.26 ± 0.56 % of Plasma Concentration (W/W
Uptake of [14C]-sucrose, % of plasma concentration (W/W) ([1]; vitreous, 1.5 min after sucrose added): 0.03 ± 0.018 % of Plasma Concentration (W/W
Uptake of [14C]-sucrose, % of plasma concentration (W/W) ([1]; vitreous, 3.0 min after sucrose added): 0.05 ± 0.01 % of Plasma Concentration (W/W
KIN, unidirectional transport rate of [14C]-sucrose ([1]; vitreous): 0.84 µL/min/g and 0.84 ± 0.25 µL/min/g
Uptake of [14C]-sucrose, % of plasma concentration (W/W) ([1]; vitreous, 4.5 min after sucrose added): 0.18 ± 0.05 % of Plasma Concentration (W/W
Effect on sucrose uptake by vitreous ([1]; vitreous, time points earlier than 4.5 minutes of VEP): did not affect
Changes in body weight, respiration rate, blood pressure and heart rate ([2]; A-7 1 μg/kg): no significant changes
Blood Pressure ([2]; A-7 1 μg/kg body weight): 75 mm Hg
Body Weight ([2]; A-7 1 μg/kg body weight): 283 g
Heart Rate ([2]; A-7 1 μg/kg body weight): 170 Beats Per Minute
Respirations/Minute ([2]; A-7 1 μg/kg body weight): 26
Blood Pressure ([2]; A-7 3 μg/kg body weight): 90 mm Hg
Body Weight ([2]; A-7 3 μg/kg body weight): 283 g
Heart Rate ([2]; A-7 3 μg/kg body weight): 200 Beats Per Minute
Respirations/Minute ([2]; A-7 3 μg/kg body weight): 44
Blood Pressure ([2]; A-7 10 μg/kg body weight): 100 mm Hg
Body Weight ([2]; A-7 10 μg/kg body weight): 285 g
Heart Rate ([2]; A-7 10 μg/kg body weight): Unmeasur-
Respirations/Minute ([2]; A-7 10 μg/kg body weight): 58
